Laboratory results from patent US8912121B2, “Herbicidal compositions comprising 4-amino-3-chloro-5-fluoro-6-(4-chloro-2-fluoro-3-methoxyphenyl)pyridine-2-carboxylic acid or a derivative thereof and certain PS II inhibitors” (Dow Agrosciences LLC, priority 2012, dated 2014).

Assays:
[1] = tested on: LAMPU (Lamium purpureum, purple deadnettle); experiment: Postemergence herbicidal activity of mixtures in cereal crops, greenhouse; type: in vivo, Lamium purpureum L.
Method: (§1) Seeds of the desired test plant species were planted in Sun Gro MetroMix® 306 planting mixture, which typically has a pH of 6.0 to 6.8 and an organic matter content of about 30 percent, in plastic pots with a surface area of 103.2 square centimeters (cm^2). When required to ensure good germination and healthy plants, a fungicide treatment and/or other chemical or physical treatment was applied. The plants were grown for 7-36 days in a greenhouse with an approximate 14 hour photoperiod which was maintained at about 18° C. during the day and about 17° C. during the night. Nutrients and water were added on a regular basis and supplemental lighting was provided with overhead metal halide 1000-Watt lamps as necessary. The plants were employed for testing when they reached the second or third true leaf stage.
(§2) Treatments consisted of the benzyl ester of 4-amino-3-chloro-5-fluoro-6-(4-chloro-2-fluoro-3-methoxy-phenyl)pyridine-2-carboxylic acid (Compound A), formulated as an SC, a second cereal herbicide alone and then both in combination.
(§3) Other herbicidal components were applied on an active ingredient basis and included PSII-inhibiting herbicides.
(§4) Measured aliquots of benzyl ester of 4-amino-3-chloro-5-fluoro-6-(4-chloro-2-fluoro-3-methoxy-phenyl)pyridine-2-carboxylic acid (Compound A) were placed in 25 milliliter (mL) glass vials and diluted in a volume of 1.25% (v/v) Agri-Dex® crop oil concentrate to obtain stock solutions. Compound requirements are based upon a 12 mL application volume at a rate of 187 liters per hectare (L/ha). Spray solutions of the second cereal herbicide and experimental compound mixtures were prepared by adding the stock solutions to the appropriate amount of dilution solution to form 12 mL spray solution with active ingredients in two- and three-way combinations. Formulated compounds were applied to the plant material with an overhead Mandel track sprayer equipped with an 8002E nozzle calibrated to deliver 187 L/ha over an application area of 0.503 square meters (m^2) at a spray height of 18 inches (46 cm) above average plant canopy. Control plants were sprayed in the same manner with the solvent blank.
(§5) The treated plants and control plants were placed in a greenhouse as described above and watered by sub-irrigation to prevent wash-off of the test compounds. After 20-22 days, the condition of the test plants as compared with that of the control plants was determined visually and scored on a scale of 0 to 100 percent where 0 corresponds to no injury and 100 corresponds to complete kill.
(§6) Colby's equation was used to determine the herbicidal effects expected from the mixtures (Colby, S. R. 1967. Calculation of the synergistic and antagonistic response of herbicide combinations. Weeds 15:20-22).
(§7) The following equation was used to calculate the expected activity of mixtures containing two active ingredients, A and B: Expected=A+B−(A×B/100)

[2] = tested on: GALAP (Galium aparine, catchweed bedstraw); experiment: as above; type: in vivo, Galium aparine L.
Method: as §1, §2, §3, §4, §5, §6, §7

[3] = tested on: VERPE (Veronica persica, Persian speedwell); experiment: as above; type: in vivo, Veronica persica Poir.
Method: as §1, §2, §3, §4, §5, §6, §7

[4] = tested on: SINAR (Sinapis arvensis, wild mustard); experiment: as above; type: in vivo, Sinapis arvensis L.
Method: as §1, §2, §3, §4, §5, §6, §7

[5] = tested on: AMARE (Amaranthus retroflexus, redroot pigweed); experiment: as above; type: in vivo, Amaranthus retroflexus L.
Method: as §1, §2, §3, §4, §5
(§8) Colby's equation was used to determine the herbicidal effects expected from the mixtures (Colby, S. R. 1967. Calculation of the synergistic and antagonistic response of herbicide combinations. Weeds 15:20-22). […]

[6] = tested on: CHEAL (Chenopodium album, common lambsquarters); experiment: as above; type: in vivo, Chenopodium album L.
Method: as §1, §2, §3, §4, §5, §8

[7] = tested on: KCHSC (Kochia scoparia, kochia); experiment: as above; type: in vivo, Kochia scoparia (L.) Schrad.
Method: as §1, §2, §3, §4, §5, §6, §7

[8] = tested on: SETFA (Setaria faberi, giant foxtail); experiment: Pre-emergence soil-applied mixtures, greenhouse; type: in vivo, Setaria faberi Herrm.; conditions: 27 DAA
Source text: (§9) Seeds or nutlets of the desired test plant species were planted in a soil matrix prepared by mixing a loam soil (32 percent silt, 23 percent clay, and 45 percent sand, with a pH of about 6.5 and an organic matter content of about 1.9 percent) and calcareous grit in an 80 to 20 ratio. The soil matrix was contained in plastic pots with a volume of 1 quart and a surface area of 83.6 square centimeters (cm^2).
(§10) Treatments consisted of the benzyl ester of 4-amino-3-chloro-5-fluoro-6-(4-chloro-2-fluoro-3-methoxy-phenyl)pyridine-2-carboxylic acid (compound A) formulated as an SC (suspension concentrate) and various herbicidal components alone and in combination. Forms of compound A were applied on an acid equivalent basis.
(§11) Other herbicidal components were applied on an acid equivalent or active ingredient basis and included the PSII-inhibiting herbicides, atrazine formulated as Atrazine® 90WDG, metribuzin formulated as Metribuzin 75DF, simazine formulated as Princep Caliber 90, tebuthiuron formulated as Spike 80DF, cyanazine (technical grade material), hexazinone (technical grade material), linuron (technical grade material), terbuthylazine (technical grade material), and diuron formulated as Diuron 4L.
(§12) Treatment requirements were calculated based upon the rates being tested, the concentration of active ingredient or acid equivalent in the formulation, and a 12 mL application volume at a rate of 187 L/ha.
(§13) For treatments comprised of formulated compounds, measured amounts of compounds were placed individually in 25 mL glass vials and diluted in a volume of 1.25% (v/v) Agri-Dex® crop oil concentrate (COC) to obtain 12× stock solutions. […] Application solutions were prepared by adding an appropriate amount of each stock solution (e.g., 1 mL) and diluted to the appropriate final concentrations with the addition of 10 mL of an aqueous mixture of 1.25% (v/v) COC so that the final spray solutions contained 1.25% (v/v) COC.
(§14) For treatments comprised of technical compounds, weighed amounts can be placed individually in 25 mL glass vials and dissolved in a volume of 97:3 (v/v) acetone/DMSO to obtain 12× stock solutions. […] Application solutions can be prepared by adding an appropriate amount of each stock solution (e.g., 1 mL) and diluted to the appropriate final concentrations with the addition of 10 mL of an aqueous mixture of 1.5% (v/v) COC so that the final spray solutions contain 1.25% (v/v) COC. When technical materials are used, the concentrated stock solutions can be added to the spray solutions so that the final acetone and DMSO concentrations of the application solutions are 16.2% and 0.5%, respectively.
(§15) For treatments comprised of formulated and technical compounds, weighed amounts of the technical materials can be placed individually in 25 mL glass vials and dissolved in a volume of 97:3 (v/v) acetone/DMSO to obtain 12× stock solutions, and measured amounts of the formulated compounds can be placed individually in 25 mL glass vials and diluted in a volume of 1.5% (v/v) COC or water to obtain 12× stock solutions. […] Application solutions can be prepared by adding an appropriate amount of each stock solution (e.g., 1 mL) and diluted to the appropriate final concentrations with the addition of an appropriate amount of an aqueous mixture of 1.5% (v/v) COC so that the final spray solutions contain 1.25% (v/v) COC. As required, additional water and/or 97:3 (v/v) acetone/DMSO can be added to individual application solutions so that the final acetone and DMSO concentrations of the application solutions being compared are 8.1% and 0.25%, respectively.
(§16) All stock solutions and applications solutions were visually inspected for compound compatibility prior to application. Spray solutions were applied to the soil with an overhead Mandel track sprayer equipped with a 8002E nozzles calibrated to deliver 187 L/ha over an application area of 0.503 m^2 at a spray height of 18 inches (46 cm) above average pot height. […]

[9] = tested on: SASKR (Salsola tragus, Russian thistle); experiment: Postemergence herbicidal activity of mixtures in cereal crops, greenhouse; type: in vivo, Salsola tragus L.
Method: as §1, §2, §3, §4, §5, §6, §7

[10] = tested on: IPOHE (Ipomoea hederacea, ivyleaf morningglory); experiment: Pre-emergence soil-applied mixtures, greenhouse; type: in vivo, Ipomoea hederacea (L.) Jacq.
Source text: as §9, §10, §11, §12, §13
For treatments comprised of technical compounds, weighed amounts can be placed individually in 25 mL glass vials and dissolved in a volume of 97:3 (v/v) acetone/DMSO to obtain 12× stock solutions. […]
For treatments comprised of formulated and technical compounds, weighed amounts of the technical materials can be placed individually in 25 mL glass vials and dissolved in a volume of 97:3 (v/v) acetone/DMSO to obtain 12× stock solutions, and measured amounts of the formulated compounds can be placed individually in 25 mL glass vials and diluted in a volume of 1.5% (v/v) COC or water to obtain 12× stock solutions. […]

[11] = tested on: XANST (Xanthium strumarium, common cocklebur); experiment: Pre-emergence soil-applied mixtures, greenhouse; type: in vivo, Xanthium strumarium L.; conditions: 29 DAA
Source text: as §9, §10, §11, §12, §13, §14, §15, §16

CC(C)c1ccc(NC(=O)N(C)C)cc1 [Isoproturon, N,N-dimethyl-N′-[4-(1-methylethyl)phenyl]urea, reference compound]
Visual Weed Control (%)-21 DAA LAMPU Obs ([1]; Isoproturon 375 g ai/ha): 3% | Visual Weed Control (%)-21 DAA LAMPU Obs ([1]; Isoproturon 750 g ai/ha): 3% | Visual Weed Control (%)-21 DAA LAMPU Obs ([1]; Isoproturon 1500 g ai/ha): 13% | Visual Weed Control (%) - 21 DAA GALAP Obs ([2]; Isoproturon 375 g ai/ha): 5% | Visual Weed Control (%) - 21 DAA GALAP Obs ([2]; Isoproturon 750 g ai/ha): 5% | Visual Weed Control (%) - 21 DAA GALAP Obs ([2]; Isoproturon 1500 g ai/ha): 27% | Visual Weed Control (%) - 21 DAA VERPE Obs ([3]; Isoproturon 375 g ai/ha): 8% | Visual Weed Control (%) - 21 DAA VERPE Obs ([3]; Isoproturon 750 g ai/ha): 10% | Visual Weed Control (%) - 21 DAA VERPE Obs ([3]; Isoproturon 1500 g ai/ha): 13% | Visual Weed Control (%)-21 DAA SINAR Obs ([4]; Isoproturon 375 g ai/ha): 13% | Visual Weed Control (%)-21 DAA SINAR Obs ([4]; Isoproturon 750 g ai/ha): 40% | Visual Weed Control (%) - 21 DAA AMARE Obs ([5]; Isoproturon 375 g ai/ha): 3% | Visual Weed Control (%) - 21 DAA AMARE Obs ([5]; Isoproturon 750 g ai/ha): 10%

CSc1nnc(C(C)(C)C)c(=O)n1N [Metribuzin, 4-amino-6-(1,1-dimethylethyl)-3-(methylthio)-1,2,4-triazin-5(4H)-one, reference compound]
Visual Weed Control (%)-21 DAA CHEAL Obs ([6]; Metribuzin 25 g ai/ha): 0% | Visual Weed Control (%)-21 DAA CHEAL Obs ([6]; Metribuzin 50 g ai/ha): 55% | Visual Weed Control (%)-21 DAA KCHSC Obs ([7]; Metribuzin 25 g ai/ha): 0% | Visual Weed Control (%)-21 DAA KCHSC Obs ([7]; Metribuzin 50 g ai/ha): 8% | Visual Weed Control (%)-21 DAA KCHSC Obs ([7]; Metribuzin 100 g ai/ha): 88% | Visual Weed Control (%) Obs ([8]; 210 g ai/ha): 43% | Visual Weed Control (%) Obs ([8]; 420 g ai/ha): 83% | Visual Weed Control (%)-21 DAA LAMPU Obs ([1]; Metribuzin 25 g ai/ha): 3% | Visual Weed Control (%)-21 DAA LAMPU Obs ([1]; Metribuzin 50 g ai/ha): 15% | Visual Weed Control (%)-21 DAA LAMPU Obs ([1]; Metribuzin 100 g ai/ha): 23% | Visual Weed Control (%)-21 DAA SASKR Obs ([9]; Metribuzin 25 g ai/ha): 8% | Visual Weed Control (%)-21 DAA SASKR Obs ([9]; Metribuzin 50 g ai/ha): 8% | Visual Weed Control (%)-21 DAA SASKR Obs ([9]; Metribuzin 100 g ai/ha): 67% | Visual Weed Control (%)-21 DAA SINAR Obs ([4]; Metribuzin 25 g ai/ha): 8% | Visual Weed Control (%)-21 DAA SINAR Obs ([4]; Metribuzin 50 g ai/ha): 15%

CNC(=O)N(C)c1nnc(C(C)(C)C)s1 [Tebuthiuron, N-[5-(1,1-dimethylethyl)-1,3,4-thiadiazol-2-yl]-N,N′-dimethylurea, reference compound]
Visual Weed Control (%) - 33 DAA IPOHE Obs ([10]; Tebuthiuron 420 g ai/ha): 87% | Visual Weed Control (%) - 33 DAA IPOHE Obs ([10]; Tebuthiuron 840 g ai/ha): 90% | Visual Weed Control (%) - 29 DAA XANST Obs ([11]; Tebuthiuron 210 g ai/ha): 40% | Visual Weed Control (%) - 29 DAA XANST Obs ([11]; Tebuthiuron 3360 g ai/ha): 95%
